According to patent publication US20240390296A1, “R-KETAMINE AND DERIVATIVE THEREOF AS PROPHYLACTIC OR THERAPEUTIC AGENT FOR NEURODE[…] OR R[…]” (National University Corporation Chiba University, priority 2017, published 2024):

Legend:
MPTP-treated mice = experiment: MPTP mouse model of Parkinson's disease, DAT immunohistochemistry in the striatum; format: in vivo
From the text: A Parkinson's disease model animal (Jackson-Lewis V. et al. Protocol for the MPTP mouse model of Parkinson's disease. Nat Protoc. 2007; 2 (1): 141-51.), which is a representative Parkinson's disease animal model and has been used by a number of research groups so far, was used to study the therapeutic effect of R-ketamine and S-ketamine on the loss of the dopamine nervous system in the brain of the model animal.
The creation of the Parkinson's disease model animal and the administration of the drug were specifically carried out as described below (FIG. 1). As the mouse, a male C57BL/6N mouse (12 weeks of age, SLC Japan Co., Ltd., Hamamatsu, Japan) was purchased. Mice had free access to water and food. For the experiment, those above 14 weeks of age were used. On the first day of the experiment, physiological saline (5 mL/kg body weight) or MPTP (10 mg/kg body weight) was intraperitoneally administered three times at two hours intervals. Three hours after the final administration, R-ketamine (10 mg/kg body weight) or S-ketamine (10 mg/kg body weight), or a vehicle (physiological saline 0.5 mL/kg) was intranasally administered. Similarly, from the second day to the seventh day of the experiment, R-ketamine (10 mg/kg body weight) or S-ketamine (10 mg/kg body weight), or the vehicle (physiological saline 0.5 mL/kg) was intranasally administered. (A) is a group administered with physiological saline+physiological saline, (B) is a group administered with MPTP+physiological saline, (C) is a group administered with MPTP+R-ketamine, and (D) is a group administered with MPTP+S-ketamine. On the eighth day of the experiment, mice were perfused and fixed, and immunohistochemistry of dopamine transporter (DAT) was carried out. The immunohistochemistry of DAT was photographed with a microscope equipped with a CCD camera (Olympus IX70, Tokyo, Japan), and the shading was analyzed using SCION IMAGE software. Representative immunohistochemical photographs were taken with a Keyence microscope (BZ-9000, Osaka, Japan).
Statistical analysis was carried out by one-way analysis of variance (one-way ANOVA) followed by Tukey's test (Tukey HSD test). Data are expressed as mean±standard error (n=7 to 8 mouse/group). * p<0.05, ** p<0.01, and *** p<0.001 show significant differences compared to the (B) group of mice treated with MPTP+physiological saline.
The test was carried out in the same manner as in the test in FIG. 1 except that R-ketamine (10 mg/kg body weight) or the vehicle (physiological saline 0.5 mL/kg) was intranasally administered once (FIG. 4). There were a group administered with physiological saline+physiological saline, a group administered with MPTP+physiological saline, and a group administered with MPTP+R-ketamine.
The test was carried out in the same manner as in the test in FIG. 1 except that R-norketamine (10 mg/kg body weight) or S-norketamine (10 mg/kg body weight) was administered (FIG. 6). There were a group administered with physiological saline+physiological saline, a group administered with MPTP+physiological saline, a group administered with MPTP+R-norketamine, and a group administered with MPTP+S-norketamine.
The test was carried out in the same manner as in the test in FIG. 1 except that ANA-12 (0.5 mg/kg), an antagonist of the TrkB receptor for brain-derived neurotrophic factor (BDNF: Brain-derived Neurotrophic Factor), was administered before the administration of R-ketamine. (FIG. 8). It should be noted that in FIG. 8, ANA-12 is described as ANA. There was a group administered with physiological saline+physiological saline, a group administered with MPTP+physiological saline, a group administered with MPTP+R-ketamine, a group administered with MPTP+R-ketamine+ANA-12, and a group administered with MPTP+ANA-12.

[1] = animal experiments, non-patent literature 5; cited from earlier work
α-synuclein-treated mice = experiment: Lewy body dementia model (intracerebroventricular α-synuclein), novel object recognition test (NORT); format: in vivo, mouse; details: 10 mg/kg intraperitoneal once a day, day 2 to day 10; test session day 15; male ICR mice
From the text: The therapeutic effects of R-ketamine and S-ketamine on cognitive dysfunction were studied using animal models of Lewy body dementia and diseases caused by α-synuclein aggregation (intracerebroventricular administration of α-synuclein), which have been used by a number of research groups so far.
The creation of the Lewy body dementia model animal and the administration of the drugs were specifically carried out as described below (FIG. 12). As the mouse, a male ICR mouse (five weeks of age, SLC Japan Co., Ltd., Hamamatsu, Japan) was purchased. Mice had free access to water and food. First, α-synuclein (StressMarq @ Bioscience, Cat #: SPR-322) was incubated at 37° C. for four days to let aggregate. On the first day of the experiment, mice were anesthetized with isoflurane and pentobarbital, and placed on a mouse brain fixation apparatus. Physiological saline (6 μL) or α-synuclein (6 μg) was administered intracerebroventricularly. […]
Statistical analysis was carried out by one-way analysis of variance (one-way ANOVA) followed by the Fisher's least significant difference test (Fisher's Least Significant Difference test). Data are expressed as mean±standard error (n=4 mouse/group). * p<0.05 and ** p<0.01 show significant differences compared to the group of mice treated with α-synuclein+physiological saline.

β-amyloid-treated mice = experiment: Alzheimer's disease model (intracerebroventricular β-amyloid), novel object recognition test (NORT); format: in vivo, mouse; details: 10 mg/kg intraperitoneal once a day, day 2 to day 10; test session day 15; male ICR mice
From the text: Using an animal model of Alzheimer's disease (intracerebroventricular administration of β-amyloid), which has been used by a number of research groups so far, the therapeutic effect of R-ketamine and S-ketamine on the cognitive dysfunction was studied.
The creation of the Alzheimer's disease model animal and the administration of the drug were specifically carried out as described below (FIG. 10). As the mouse, a male ICR mouse (five weeks of age, SLC Japan Co., Ltd., Hamamatsu, Japan) was purchased. Mice had free access to water and food. First, β-amyloid (BACHEM, Cat. #: H-1192.0005) was incubated at 37° C. for four days to let aggregate. On the first day of the experiment, mice were anesthetized with isoflurane and pentobarbital, and placed on a mouse brain fixation apparatus. Distilled water (6 μL) or β-amyloid (6 μg) was administered intracerebroventricularly. […] On the 14th day of the experiment, two objects having different shapes and colors were placed on the NORT apparatus at a distance of 35.5 cm, and the time for searching for each object was measured. […] The time to search for two objects was measured, and the ratio of the time to search for a new object to the time to search for the two objects in the test session on the second day was calculated. […]

[2] = system: animal model of Parkinson's disease; details: 50 mg/kg (anesthetic dose), cited from earlier work
NMDA receptor = details: non-patent literature 4; cited from earlier work
[3] = 10 mg/kg intranasal, day 1 (3 h after last MPTP) to day 7, DAT on day 8, male C57BL/6N mice

SMILES: CN[C@@]1(c2ccccc2Cl)CCCCC1=O [R-ketamine]
- MPTP-induced decrease in DAT density in the striatum (MPTP-treated mice; [3]): significantly improved the decrease in DAT density
- MPTP-induced decrease in DAT density in the striatum (MPTP-treated mice; 10 mg/kg intranasal, single administration): suppressed MPTP-induced decrease in DAT density
- MPTP-induced decrease in DAT density in the striatum (MPTP-treated mice; R-ketamine 10 mg/kg intranasal with ANA-12 (0.5 mg/kg) administered before): No effect of R-ketamine was observed
- side effects (psychotic disorder triggering effect, drug dependency, and the like) compared with S-ketamine [1]: fewer side effects
- decrease in cognitive function caused by α-synuclein administration (NORT) (α-synuclein-treated mice): significantly improved the decrease in cognitive function
- decrease in cognitive function caused by β-amyloid administration (NORT) (β-amyloid-treated mice): significantly improved the decrease in cognitive function

SMILES: CNC1(c2ccccc2Cl)CCCCC1=O (racemic) [RS-ketamine]
- neuroprotective effect in an animal model of Parkinson's disease ([2]; non-patent literature 2): has a neuroprotective effect
- side effects such as an acute activity increase effect [2]: notably observed

SMILES: N[C@@]1(c2ccccc2Cl)CCCCC1=O [R-norketamine]
- MPTP-induced decrease in DAT density in the striatum (MPTP-treated mice; [3]): did not suppress MPTP-induced decrease in DAT density

SMILES: N[C@]1(c2ccccc2Cl)CCCCC1=O [S-norketamine]
- MPTP-induced decrease in DAT density in the striatum (MPTP-treated mice; [3]): did not suppress MPTP-induced decrease in DAT density

SMILES: CN[C@]1(c2ccccc2Cl)CCCCC1=O [S-ketamine]
- MPTP-induced decrease in DAT density in the striatum (MPTP-treated mice; [3]): did not improve the decrease in DAT density
- affinity for the NMDA receptor relative to R-ketamine (NMDA receptor): about four times higher than R-ketamine
- decrease in cognitive function caused by β-amyloid administration (NORT) (β-amyloid-treated mice): did not improve the decrease in cognitive function

SMILES: O=C(Nc1ccccc1C(=O)NC1CCCCNC1=O)c1cc2ccccc2s1 (centres unmarked) [ANA-12]
- MPTP-induced decrease in DAT density (MPTP-treated mice; ANA-12 alone, 0.5 mg/kg): did not affect MPTP-induced decrease in DAT density
